Source: ChEMBL document CHEMBL3286222, “Synthesis and antiproliferative studies of 5-aryl-2-(3-thienylamino)-1,3,4-thiadiazoles” (Bioorg Med Chem Lett, 2014)

What was measured:
[1] = Cytotoxicity against human U373 cells assessed as growth inhibition after 72 hrs by MTT colorimetric assay; type: functional, cell-based, U-373MG ATCC; conditions: U373 MG
MCF7 [2] = test: Cytotoxicity against human MCF7 cells assessed as growth inhibition after 72 hrs by MTT colorimetric assay; type: functional, cell-based; conditions: MCF7, 72 h
SK-MEL-28 [3] = test: Cytotoxicity against human SK-MEL-28 cells assessed as growth inhibition after 72 hrs by MTT colorimetric assay; type: functional, cell-based; conditions: SK-MEL-28, 72 h
[4] = Cytotoxicity against human Hs683 cells assessed as growth inhibition after 72 hrs by MTT colorimetric assay; type: functional, cell-based; conditions: Hs 683, 72 h
A549 [5] = test: Cytotoxicity against human A549 cells assessed as growth inhibition after 72 hrs by MTT colorimetric assay; type: functional, cell-based; conditions: A549, 72 h
[6] = Cytotoxicity against mouse B16F10 cells assessed as growth inhibition after 72 hrs by MTT colorimetric assay; type: functional, cell-based; conditions: B16-F10, 72 h
[7] = Cytotoxicity against human NHLF cells assessed as growth inhibition after 72 hrs by MTT colorimetric assay; type: cell-based
NHDF = test: Cytotoxicity against human NHDF cells assessed as growth inhibition after 72 hrs by MTT colorimetric assay; type: cell-based
[8] = Cytotoxicity against mouse B16F10 cells assessed as cell viability at 50 uM after 72 hrs by MTT colorimetric assay; type: functional; conditions: B16-F10, 72 h, read-out: Activity
MCF7 [9] = test: Cytotoxicity against human MCF7 cells assessed as cell viability at 100 uM after 72 hrs by MTT colorimetric assay; type: functional; conditions: MCF7, 72 h, read-out: Activity
[10] = Cytotoxicity against human Hs683 cells assessed as cell viability at 50 uM after 72 hrs by MTT colorimetric assay; type: functional; conditions: Hs 683, 72 h, read-out: Activity
A549 [11] = test: Cytotoxicity against human A549 cells assessed as cell viability at 100 uM after 72 hrs by MTT colorimetric assay; type: functional; conditions: A549, 72 h, read-out: Activity
[12] = Cytotoxicity against mouse B16F10 cells assessed as cell viability at 0.5 uM after 72 hrs by MTT colorimetric assay; type: functional; conditions: B16-F10, 72 h, read-out: Activity
[13] = Cytotoxicity against human Hs683 cells assessed as cell viability at 100 uM after 72 hrs by MTT colorimetric assay; type: functional; conditions: Hs 683, 72 h, read-out: Activity
SK-MEL-28 [14] = test: Cytotoxicity against human SK-MEL-28 cells assessed as cell viability at 0.5 uM after 72 hrs by MTT colorimetric assay; type: functional; conditions: SK-MEL-28, 72 h, read-out: Activity
A549 [15] = test: Cytotoxicity against human A549 cells assessed as cell viability at 0.5 uM after 72 hrs by MTT colorimetric assay; type: functional; conditions: A549, 72 h, read-out: Activity
[16] = Cytotoxicity against human U373 cells assessed as cell viability at 0.5 uM after 72 hrs by MTT colorimetric assay; type: functional, U-373MG ATCC; conditions: U373 MG, read-out: Activity
[17] = Cytotoxicity against human Hs683 cells assessed as cell viability at 0.05 uM after 72 hrs by MTT colorimetric assay; type: functional; conditions: Hs 683, 72 h, read-out: Activity
MCF7 [18] = test: Cytotoxicity against human MCF7 cells assessed as cell viability at 0.5 uM after 72 hrs by MTT colorimetric assay; type: functional; conditions: MCF7, 72 h, read-out: Activity
[19] = Cytotoxicity against mouse B16F10 cells assessed as cell viability at 1 uM after 72 hrs by MTT colorimetric assay; type: functional; conditions: B16-F10, 72 h, read-out: Activity
SK-MEL-28 [20] = test: Cytotoxicity against human SK-MEL-28 cells assessed as cell viability at 100 uM after 72 hrs by MTT colorimetric assay; type: functional; conditions: SK-MEL-28, 72 h, read-out: Activity
[21] = Cytotoxicity against human Hs683 cells assessed as cell viability at 0.5 uM after 72 hrs by MTT colorimetric assay; type: functional; conditions: Hs 683, 72 h, read-out: Activity
[22] = Cytotoxicity against human Hs683 cells assessed as cell viability at 5 uM after 72 hrs by MTT colorimetric assay; type: functional; conditions: Hs 683, 72 h, read-out: Activity
[23] = Cytotoxicity against mouse B16F10 cells assessed as cell viability at 5 uM after 72 hrs by MTT colorimetric assay; type: functional; conditions: B16-F10, 72 h, read-out: Activity
MCF7 [24] = test: Cytotoxicity against human MCF7 cells assessed as cell viability at 50 uM after 72 hrs by MTT colorimetric assay; type: functional; conditions: MCF7, 72 h, read-out: Activity
[25] = Cytotoxicity against human Hs683 cells assessed as cell viability at 1 uM after 72 hrs by MTT colorimetric assay; type: functional; conditions: Hs 683, 72 h, read-out: Activity
A549 [26] = test: Cytotoxicity against human A549 cells assessed as cell viability at 50 uM after 72 hrs by MTT colorimetric assay; type: functional; conditions: A549, 72 h, read-out: Activity
[27] = Cytotoxicity against human Hs683 cells assessed as cell viability at 10 uM after 72 hrs by MTT colorimetric assay; type: functional; conditions: Hs 683, 72 h, read-out: Activity
A549 [28] = test: Cytotoxicity against human A549 cells assessed as cell viability at 5 uM after 72 hrs by MTT colorimetric assay; type: functional; conditions: A549, 72 h, read-out: Activity
[29] = Cytotoxicity against human U373 cells assessed as cell viability at 10 uM after 72 hrs by MTT colorimetric assay; type: functional, U-373MG ATCC; conditions: U373 MG, read-out: Activity
A549 [30] = test: Cytotoxicity against human A549 cells assessed as cell viability at 10 uM after 72 hrs by MTT colorimetric assay; type: functional; conditions: A549, 72 h, read-out: Activity
MCF7 [31] = test: Cytotoxicity against human MCF7 cells assessed as cell viability at 5 uM after 72 hrs by MTT colorimetric assay; type: functional; conditions: MCF7, 72 h, read-out: Activity

| SMILES | IC50 [1] [µM] | IC50 (MCF7 [2]) [µM] | IC50 (SK-MEL-28 [3]) [µM] | IC50 [4] [µM] | IC50 (A549 [5]) [µM] | IC50 [6] [µM] | further results |
| --- | --- | --- | --- | --- | --- | --- | --- |
| Cc1ccc(-c2cc(Nc3nnc(-c4ccc(O)cc4)s3)cs2)cc1 | 8 | 8 | 14 | 17 | 6 | 6 | – |
| COc1ccc(C(=O)NNC(=S)Nc2csc(-c3ccc(C)cc3)c2)cc1 | 19 | 5 | 11 | 12 | 11 | 9 | IC50 [7]: 28 µM; IC50 (NHDF): 22 µM |
| COc1cc(OC)cc(-c2nnc(Nc3csc(-c4ccccc4)c3)s2)c1 | 92 | – | > 100 | – | – | – | viability at 50 µM [8]: < 50%; viability at 100 µM (MCF7 [9]): < 50%; viability at 50 µM [10]: < 50%; viability at 100 µM (A549 [11]): < 50% |
| COc1ccc(C(=O)NNC(=S)Nc2csc(-c3ccccc3)c2)cc1 | 41 | 32 | 30 | 35 | 36 | 33 | – |
| Cc1ccc(-c2cc(NC(=S)NNC(=O)c3ccc(O)cc3)cs2)cc1 | 64 | 42 | 46 | 49 | 44 | 48 | – |
| COc1ccc(-c2nnc(Nc3csc(-c4ccccc4)c3)s2)cc1OC | > 100 | 92 | > 100 | – | > 100 | – | viability at 0.5 µM [12]: < 50%; viability at 100 µM [13]: < 50% |
| O=C(NNC(=S)Nc1csc(-c2ccccc2)c1)c1ccc(O)cc1 | > 100 | 78 | 71 | 80 | 75 | 40 | – |
| COc1ccc(C(=O)NNC(=S)Nc2csc(-c3ccc(C)cc3)c2)cc1OC | 47 | 11 | 19 | 39 | 36 | 7 | – |
| COc1cc(-c2nnc(Nc3csc(-c4ccc(C)cc4)c3)s2)cc(OC)c1OC | – | – | – | – | – | 12 | viability at 0.5 µM (SK-MEL-28 [14]): < 50%; viability at 0.5 µM (A549 [15]): < 50%; viability at 0.5 µM [16]: < 50%; viability at 0.05 µM [17]: < 50%; viability at 0.5 µM (MCF7 [18]): < 50% |
| COc1cc(OC)cc(C(=O)NNC(=S)Nc2csc(-c3ccccc3)c2)c1 | 40 | 38 | 37 | 42 | 39 | 30 | – |
| Cc1ccc(C(=O)NNC(=S)Nc2csc(-c3ccc(C)cc3)c2)cc1 | 38 | 29 | 44 | 40 | 37 | 20 | – |
| COc1cc(OC)cc(C(=O)NNC(=S)Nc2csc(-c3ccc(C)cc3)c2)c1 | 41 | 26 | 38 | 37 | 32 | 13 | – |
| COc1ccc(C(=O)NNC(=S)Nc2csc(-c3ccccc3)c2)cc1OC | 59 | 21 | 28 | 22 | 20 | 9 | – |
| COc1ccc(-c2nnc(Nc3csc(-c4ccc(C)cc4)c3)s2)cc1 | – | – | – | – | – | – | viability at 0.5 µM (A549 [15]): < 50%; viability at 0.5 µM [16]: < 50%; viability at 1 µM [19]: < 50%; viability at 100 µM (SK-MEL-28 [20]): < 50%; viability at 0.5 µM (MCF7 [18]): < 50%; viability at 0.5 µM [21]: < 50% |
| Cc1ccc(C(=O)NNC(=S)Nc2csc(-c3ccccc3)c2)cc1 | 62 | 30 | 40 | 37 | 40 | 24 | – |
| COc1ccc(-c2nnc(Nc3csc(-c4ccccc4)c3)s2)cc1 | 92 | 60 | > 100 | 5 | 8 | 6 | – |
| COc1ccc(-c2nnc(Nc3csc(-c4ccc(C)cc4)c3)s2)cc1OC | > 100 | – | > 100 | – | – | – | viability at 5 µM [22]: < 50%; viability at 5 µM [23]: < 50%; viability at 0.5 µM (A549 [15]): < 50%; viability at 50 µM (MCF7 [24]): < 50% |
| Cc1ccc(-c2cc(Nc3nnc(-c4ccc(C)cc4)s3)cs2)cc1 | – | – | > 100 | – | – | – | viability at 100 µM (MCF7 [9]): < 50%; viability at 1 µM [25]: < 50%; viability at 0.5 µM (A549 [15]): < 50%; viability at 0.5 µM [16]: < 50%; viability at 1 µM [19]: < 50% |
| COc1cc(-c2nnc(Nc3csc(-c4ccccc4)c3)s2)cc(OC)c1OC | > 100 | > 100 | > 100 | – | – | – | viability at 5 µM [22]: < 50%; viability at 0.5 µM [12]: < 50%; viability at 100 µM (A549 [11]): < 50% |
| COc1cc(C(=O)NNC(=S)Nc2csc(-c3ccc(C)cc3)c2)cc(OC)c1OC | 47 | 31 | 42 | 42 | 39 | 13 | – |
| Cc1ccc(-c2nnc(Nc3csc(-c4ccccc4)c3)s2)cc1 | > 100 | 34 | > 100 | – | – | 4 | viability at 5 µM [22]: < 50%; viability at 50 µM (A549 [26]): < 50% |
| COc1ccc(-c2cc(NC(=S)NNC(=O)c3ccc(C)cc3)cs2)cc1 | > 100 | 40 | 22 | 30 | 35 | 7 | – |
| COc1cc(C(=O)NNC(=S)Nc2csc(-c3ccccc3)c2)cc(OC)c1OC | 44 | 43 | 55 | 42 | 39 | 32 | – |
| COc1ccc(-c2cc(Nc3nnc(-c4ccc(C)cc4)s3)cs2)cc1 | > 100 | > 100 | > 100 | – | – | – | viability at 10 µM [27]: < 50%; viability at 1 µM [19]: < 50%; viability at 5 µM (A549 [28]): < 50% |
| Oc1ccc(-c2nnc(Nc3csc(-c4ccccc4)c3)s2)cc1 | 58 | 24 | 57 | 26 | 15 | 8 | – |
| COc1cc(OC)cc(-c2nnc(Nc3csc(-c4ccc(C)cc4)c3)s2)c1 | – | – | > 100 | – | – | – | viability at 5 µM [22]: < 50%; viability at 10 µM [29]: < 50%; viability at 1 µM [19]: < 50%; viability at 10 µM (A549 [30]): < 50%; viability at 5 µM (MCF7 [31]): < 50% |
